This test has as its target SARS-CoV-2 Main Protease (SARS-CoV-2) (UniProt P0DTD1).

Drawing on the COVID Moonshot data (paper PMC7615835), this text covers IC50 for 86 compounds.

Structures are written as SMILES. Values joined by “and” are separate entries in the source; they are usually repeats but may differ in a detail not shown here. Equal entries are not always repeated.

Turning to `O=C(Cc1cccc(Cl)c1)Nc1c(O)cnc2ccccc12`, the IC50 (as a rule, the concentration needed to halve the response being measured) was 8.44 µM. That is a single-digit micromolar value.
With `Cn1c(=O)c2cc(C(=O)N(c3ccc(C(C)(C)C)cc3)C(C(=O)NCCc3cccc(F)c3)c3cccnc3)n(C)c2n(C)c1=O` (stereo unspecified), the IC50 is more than 99.5 µM.
Compound `CC(C)(C)c1ccc(N(C(=O)c2c[nH]nn2)C(C(=O)NCCc2cccc(F)c2)c2cccnc2)cc1` (stereo unspecified) had an IC50 of 1.17 µM.
Then `C=CC(=O)N(c1ccc(C(C)(C)C)cc1)C(C(=O)NC(C)(C)C)c1cncc(Cl)c1` (stereo unspecified), with 65.6 µM.
Then `N#CC1(CS(=O)(=O)NCc2ccc(Cl)cc2CC(=O)Nc2cncc3ccccc23)CC1`, with 0.133 µM; and `O=C(NCCc1cccc(F)c1)C(c1cccnc1)N(C(=O)c1cnc[nH]1)c1cccc(Oc2cccnn2)c1` (stereo unspecified), with more than 99 µM; and `Cc1cc(Nc2cc(Cl)cc(CC(=O)Nc3cncc4ccccc34)c2)c(F)cc1Br`, with 2.05 µM.
Then `CC1(C(=O)Nc2cncc3ccccc23)CNC(=O)c2ccc(Cl)cc21` (stereo unspecified), with 0.876 µM; and `O=C(NCCc1cccc(F)c1)C(c1cccnc1)N(C(=O)c1cocn1)c1ccc2c(c1)CCCS2(=O)=O` (stereo unspecified), with more than 99.5 µM; and `Cc1cc(C(F)(F)F)nc2n[nH]c(NC(=O)C3CCOc4ccc(Cl)cc43)c12` (stereo unspecified), with 26 µM.
Consider `COc1cccc2[nH]c(=O)cc(C(=O)N3CCN(c4cccc(Cl)c4)CC3)c12`, for which the 50% inhibitory concentration (IC50) amounted to 4.68 µM.
`O=C(CCl)N1CCN(Cc2cccc3ccccc23)CC1` yielded an IC50 of 5.76 µM.
`CC(=O)NCC1(C(=O)Nc2cncc3ccccc23)CCOc2ccc(Cl)cc21` (stereo unspecified): the IC50 came to 3.34 µM.
Then `Cc1[nH]c2ccccc2c1/C=N/c1sc2c(c1C#N)CCC(C)C2` (stereo unspecified), with more than 99.5 µM; and `COc1ccc2ncc(NC(=O)Cc3cccc(Cl)c3)n2c1`, with 15.9 µM; and `C=CC(=O)N(c1ccc(C(C)(C)C)cc1)C(C(=O)NCC)c1cccnc1` (stereo unspecified), with 45.5 µM.
`Cc1ccncc1NC(=O)Cc1cc(Cl)cc(NC2CCCC2O)c1` (stereo unspecified) returned an IC50 of 19.7 µM.
As to `CC(C)(C#N)CS(=O)(=O)N1Cc2ccc(Cl)cc2C2(CCN(c3cncc4ccccc34)C2=O)C1` (stereo unspecified), the IC50 was 0.448 µM.
Then `O=C1CCC(c2ccc(N(C(=O)c3cocn3)C(C(=O)NCCc3cccc(F)c3)c3cccnc3)cc2)N1` (stereo unspecified), with more than 99.5 µM.
Take `O=C(NCCc1cccc(F)c1)C(c1cccnc1)N(C(=O)c1cocn1)c1ccc2c(c1)CCC(=O)N2CC(F)F` (stereo unspecified): the IC50 was 24.5 µM.
The compound `N#CC1(CS(=O)(=O)N2Cc3ccc(Cl)cc3C(C(=O)Nc3cncc4cc(NS(=O)(=O)C5CC5)ccc34)C2)CC1` (stereo unspecified) yielded an IC50 of less than 0.05 µM.
Compound `CCCc1cc2c(cc1S(=O)(=O)N1CCN(c3ncccn3)CC1)OCO2` gave an IC50 of more than 99.5 µM.
`CCOC(=O)c1cccc(NC(=O)[C@@H]2CN(C(=O)CCl)CCN2S(=O)(=O)c2ccsc2)c1` (stereo in doubt) displayed an IC50 of 0.459 µM.
Compound `COC(=O)c1c(C)nn(C(=O)c2cccs2)c1-c1snnc1C` gave an IC50 of 5.72 µM.
As for `O=C(Cc1cc(Cl)cc(Nc2ccc(-c3ccccn3)cc2)c1)Nc1cncc2ccccc12`, the IC50 came out at 1.67 µM.
Then `Cc1cc2c(cc1C)C(C(=O)N1CCCCC1c1cn[nH]c1)CO2` (stereo unspecified), with more than 99.5 µM.
Then `CC1CN(Cc2cccc(Cl)c2)CCN1C(=O)CCl` (stereo unspecified), with 7.73 µM; and `COc1ccccc1OC(C)CNC(=O)c1cc(=O)[nH]c2cc(F)ccc12` (stereo unspecified), with more than 99.5 µM.
For `COc1cc(C(=O)N(c2ccc(C(C)(C)C)cc2)C(C(=O)NCCc2cccc(F)c2)c2cccnc2)sn1` (stereo unspecified), the IC50 is more than 99.5 µM.
Then `O=C(NCCc1cccc(F)c1)C(c1cccnc1)N(C(=O)c1cocn1)c1ccc(N2CCCS2(=O)=O)cc1` (stereo unspecified), with 27.8 µM.
In the case of `O=C(NCCc1cccc(F)c1)C(c1cccnc1)N(C(=O)c1cnc[nH]1)c1cccc(C2COC2)c1` (stereo unspecified), the IC50 was more than 99 µM.
Then `COc1cc2c(cc1OC)CN(c1cc(Cl)cc(CC(=O)Nc3cncc4ccccc34)c1)CC2`, with 1.65 µM; and `N#CCCN1CCN(C(=O)CC2(C(=O)Nc3cncc4ccccc34)CCOc3ccc(Cl)cc32)CC1` (stereo unspecified), with 21.3 µM.
Then `Cn1ccc(CN2Cc3ccc(Cl)cc3C(C(=O)Nc3cncc4ccc(F)cc34)C2)n1` (stereo unspecified), with 1.35 µM; and `CCOc1ccc(N(C(=O)c2cocn2)C(C(=O)NCCc2cccc(F)c2)c2cccnc2)cc1` (stereo unspecified), with 15.5 µM; and `O=C(Cc1cc(Cl)cc(Nc2ccc(O)cc2[N+](=O)[O-])c1)Nc1cncc2ccccc12`, with 5.33 µM.
Then `O=C(NC1CCCCC1)[C@@H]1CN(C(=O)CCl)CCN1S(=O)(=O)c1ccsc1` (stereo in doubt), with 1.14 µM; and `O=C(Cc1cccc(Cl)c1)Nc1cncc2c1CCC2`, with 5.16 µM; and `COc1cc(N(C(=O)c2cocn2)C(C(=O)NCCc2cccc(F)c2)c2cccnc2)ccc1S(=O)(=O)N(C)C` (stereo unspecified), with more than 99.5 µM.
`O=C(Cc1cc(Cl)cc(OC(F)(F)F)c1)Nc1cncc2ccccc12` gave an IC50 of 1.55 µM.
With `CS(=O)(=O)N1CCc2ccc(CN3CCN(C(=O)CCl)CC3)cc2C1`, the IC50 was 40.2 µM.
Then `CC1NCCn2c(-c3nc(-c4cnc5cnccn45)no3)ccc21` (stereo unspecified), with more than 99.5 µM; and `C=CC(=O)N(c1cc(C(C)(C)C)on1)C(C(=O)NCCc1cccc(F)c1)c1cncc(C#N)c1` (stereo unspecified), with more than 99.5 µM.
Then `CC(C)(C)c1ccc(N(C(=O)c2ccccc2)C(C(=O)NCCc2cccc(F)c2)c2cccnc2)cc1` (stereo unspecified), with more than 99.5 µM.
In turn, `Cn1nc(C(C(=O)NCCc2cccc(F)c2)N(C(=O)c2ccco2)c2ccc(C(C)(C)C)cc2)c2ccccc21` (stereo unspecified) registered an IC50 of more than 99.5 µM.
Then `Cn1ccc2cncc(NC(=O)Cc3cccc(Cl)c3)c21`, with 1.45 µM; and `O=C(Nc1cncc2ccccc12)C1=CCCc2ccc(Cl)cc21`, with 0.233 µM.
Then `COc1cccc2ncc(NC(=O)Cc3cccc(Cl)c3)n12`, with more than 99.5 µM; and `COc1cccc(C2=N/C(=C/c3sccc3C)C(=O)O2)c1`, with 1.17 µM.
Then `Cn1ncc(NC(=O)C2CCOc3ccc(Cl)cc32)c1C(F)F` (stereo unspecified), with more than 99.5 µM.
With `O=C(Nc1nncn1C1CC1)C1CCS(=O)(=O)c2ccccc21` (stereo unspecified), the IC50 is 68.9 µM.
On to `O=C(Cc1cccc(Cl)c1)NC1CCCNC1=O` (stereo unspecified), for which the concentration for half-maximal inhibition (IC50) was more than 99.5 µM.
Then `O=C(Cc1cc(Cl)cc(N(C(=O)c2ccccc2)C2CCNCC2)c1)Nc1cncc2ccccc12`, with 2.14 µM; and `CC(C)(C)c1ccc(N(C(=O)c2ccco2)C(C(=O)NCCN2CCOCC2)c2cccnc2)cc1` (stereo unspecified), with 2.19 µM.
Then `O=C(NCCc1cccc(F)c1)C(c1cccnc1)N(C(=O)c1cocn1)C1CCc2cc(F)ccc21` (stereo unspecified), with more than 99.5 µM; and `Cc1ccc(S(=O)(=O)NCC(=O)N2CCC(NS(N)(=O)=O)CC2)cc1`, with more than 99.5 µM.
Then `O=C1C(=O)N(Cc2ccccc2)c2ccc([N+](=O)[O-])cc21`, with more than 99.5 µM; and `C[C@H]1CN(c2cc(Cl)cc(CC(=O)Nc3cncc4ccccc34)c2)CCN1C(=O)OC(C)(C)C` (stereo in doubt), with 2.61 µM; and `CC(C)(C)c1ccc(N(C(=O)c2cocn2)C(C(=O)NCC2CCOC2)c2cccnc2)cc1` (stereo unspecified), with 5.42 µM.
Regarding `COCc1ccc(N(C(=O)c2cnc[nH]2)C(C(=O)NCCc2cccc(F)c2)c2cccnc2)cc1` (stereo unspecified), the IC50 was 62.9 µM. Compared with the last compound, the IC50 is about 12-fold higher.
`O=C(CC1(C(=O)Nc2cncc3ccccc23)CCOc2ccc(Cl)cc21)Nc1nnco1` (stereo unspecified) came in with an IC50 of more than 99.5 µM.
Compound `Cc1ncc(CN2CC(C(=O)Nc3cncc4cc(S(C)(=O)=O)ccc34)c3cc(Cl)ccc3C2=O)[nH]1` (stereo unspecified) showed an IC50 of 0.226 µM.
Then `NS(=O)(=O)c1n[nH]cc1C(=O)NC[C@@]1(C(=O)Nc2cncc3ccccc23)CCOc2ccc(Cl)cc21` (stereo in doubt), with 1.99 µM; and `O=C(NCCc1cccc(F)c1)C(c1cccnc1)N(C(=O)c1cocn1)C1CCC2(CCO2)CC1` (stereo unspecified), with more than 99.5 µM; and `C[C@@H]1NC(=O)c2ccc(Cl)cc2[C@@H]1C(=O)Nc1cncc2ccccc12` (stereo in doubt), with 0.454 µM.
In turn, `O=C(NCCc1cccc(F)c1)C(c1cccnc1)N(C(=O)c1cocn1)c1ccc(-c2nnc3n2CCC3)cc1` (stereo unspecified) came in with an IC50 of more than 99.5 µM.
`CC(CCc1ccccc1)N1CCN(C(=O)CCl)CC1` (stereo unspecified): the IC50 stood at 20.3 µM.
Then `Cc1ccncc1C(C(=O)NCCc1cccc(F)c1)N(C(=O)c1cocn1)c1ccc(C(C)(C)C)cc1` (stereo unspecified), with 0.653 µM; and `O=C(CC1(C(=O)Nc2cncc3ccccc23)CCOc2ccc(Cl)cc21)N1CCOCC1CC(F)F` (stereo unspecified), with 7.68 µM and 12.6 µM.
`CC(C)(C)c1ccc(N(C(=O)c2cocn2)C(C(=O)NCc2cccnc2)c2cccnc2)cc1` (stereo unspecified) had an IC50 of 25.3 µM. This lies in the double-digit micromolar range.
Then `COc1cc(Cl)nc(Nc2cc(Cl)cc(CC(=O)Nc3cncc4ccccc34)c2)n1`, with 0.504 µM.
The compound `COc1ccc(Cl)cc1OCCNC(=O)c1cc(=O)[nH]c2ccccc12` had a half-inhibitory concentration (IC50) of more than 99.5 µM.
Compound `CNC(=O)CN1CC2(CC(=O)N(c3cncc4ccccc34)C2=O)c2cc(Cl)ccc2C1=O` (stereo unspecified) showed an IC50 of 0.26 µM.
Then `CNc1cncc(NC(=O)C2CCOc3ccc(Cl)cc32)c1C` (stereo unspecified), with 32.3 µM.
Then `CN1CC(C#N)(CS(=O)(=O)N2Cc3ccc(Cl)cc3C(C(=O)Nc3cncc4ccccc34)C2)C1` (stereo unspecified), with 0.151 µM.
Then `O=C(Nc1cncc2ccccc12)C1CCOc2c(OCc3cccnc3)cc(Cl)cc21` (stereo unspecified), with 24.9 µM and > 9.95 µM.
`O=c1[nH]c2ccc(NC(=S)Nc3ccccc3Cl)cc2[nH]1` showed an IC50 of more than 99.5 µM.
Then `O=C(Cc1cccc(Cl)c1)Nc1cncc2oncc12`, with 50.6 µM; and `CCc1ccc([N+](=O)[O-])cc1Nc1cc(Cl)cc(CC(=O)Nc2cncc3ccccc23)c1`, with 1.71 µM.
Then `COc1ccccc1N1CCN(c2cc(Cl)cc(CC(=O)Nc3cncc4ccccc34)c2)CC1`, with 2.98 µM; and `O=C(Cc1cc(Cl)cc(N2CCN(c3ccc(O)cc3)CC2)c1)Nc1cncc2ccccc12`, with 2.19 µM; and `CC1(CS(=O)(=O)N2Cc3ccc(Cl)cc3[C@H](C(=O)Nc3cncc4ccccc34)C2)CC1` (stereo in doubt), with < 0.05 µM and 0.0846 µM and 0.0459 µM.
`COc1ccc(C2CC(c3ccccc3)=NN2C(=O)CCl)cc1OC` (stereo unspecified) yielded an IC50 of 0.543 µM.
As for `COCCCNCC1(C(=O)Nc2cncc3ccccc23)CCOc2ccc(Cl)cc21` (stereo unspecified), the half-inhibitory concentration (IC50) is 11.4 µM.
Then `c1ccc(-c2cc(Sc3nnc(-c4cccs4)o3)n3ncnc3n2)cc1`, with 0.221 µM; and `Cc1cc(C)nc(NC2CCN(C(=O)CCl)CC2)n1`, with 27.6 µM.
